Measurements: US20060009433A1, “Neuroprotective spirostenol pharmaceutical compositions” (priority 2003, published 2006)
Entries after “also recorded” stand apart in the source; their conditions may differ.

What was measured:
[1] = tested on: NT2 cells; test: NT2 cell differentiation, phase-contrast morphology; format: cell-based, human; settings: 25 μM; 3, 6 and 12 days (comparators 6 days)
[2] = tested on: NT2 cells; test: BrdU assay, NT2 cell proliferation; format: cell-based, human
[3] = tested on: NT2 cells; test: LDH and MTT assays, NT2 cell viability; settings: LDH and MTT; 25-50 μM; 3-day treatment
[4] = tested on: rat PC12 neuronal cells; test: MTT assay, Aβ1-42-induced cytotoxicity in PC12 cells (Example I); settings: MTT; for neuroprotective effect against Aβ-induced neurotoxicity: Aβ1-42
[5] = tested on: PC12 cells (rat pheochromocytoma neurons); test: MTT cytotoxicity assay, Aβ-induced neurotoxicity in PC12 cells (Example II); format: cell-based
Description: (§1) PC12 cells (rat pheochromocytoma neurons) from ATCC (Manassas, Va.) were cultured at 37° C. and 5% CO2 in RPMI 1640 medium devoid of glutamine and supplemented with 10% fetal bovine serum and 5% horse serum. Yao Z, Drieu K and Papadopoulos V., The Gingko biloba extract EGb 761 rescues PC12 neuronal cells from β-amyloid-induced cell death by inhibiting the formation of (3-amyloid-derived diffusible neurotoxic ligands, Brain Res, 889, 181-190 (2001). Cells were seeded in 96-well plates (8×10^4 cells/well). After an overnight period of incubation, increasing concentrations of aggregated Aβ (0.1, 1 and 10 μM) were added to the cells in the presence or absence of the indicated concentrations of the SP compounds to be tested. After 72-hours incubation time various parameters, markers of cell viability, were determined. Mouse MA-10 tumor Leydig cells were maintained at 37° C. in DMEM/Ham's F12 (Biofluids, Rockville, Md.) medium supplemented with 5% heat-inactivated fetal calf serum and 2.5% horse serum in 5% CO2. Cells were plated on 96-well plates at the density of 2.5×10^4 cells/well for overnight. The cells were stimulated with the indicated concentrations of the various SP compounds in 0.2 ml/well serum-free medium for 2 hours. The culture medium was collected and tested for progesterone production by radioimmunoassay.
The cellular toxicity of Aβ was assessed using the 3-(4,5-dimethylthiazol-2-yl)-2,5-diphenyl tetrazolium bromide (MTT) assay (Trevigen, Gaithersburg, Md.). Briefly, 10 μl of the MTT solution were added to the cells cultured in 100 μl medium. After an incubation period of 4 hours, 100 μl of detergent were added and cells were incubated overnight at 37° C. Formazan blue formation was quantified at 600 nm and 690 nm using the Victor quantitative detection spectrophotometer (EGG-Wallac, Gaithersburg, Md.) and the results expressed as (DO600-DO690). […] Liu Y and Schubert D, Steroid hormones block amyloid fibril-induced 3-(4,5-dimethylthiazol-2-yl)-2,5-diphenyltetrazolium bromide (MTT) formazan exocytosis: relationship to neurotoxicity, J. Neurochem., 19, 1639-1662 (1998). For that reason, additional cytotoxicity and cell viability assays were used.
Yao et al., J. Neurochem., 83, 1110-1119 (2002); and Yao et al., The Gingko biloba extract EGb 761 rescues PC12 neuronal cells from β-amyloid-induced cell death by inhibiting the formation of β-amyloid-derived diffusible neurotoxic ligands, Brain Res., 889, 181-190 (2001). To stay close to the concentrations of Aβ present in AD brain, 0.1-10 μM concentrations of Aβ were used. The compounds tested for their neuroprotective properties were examined at 30 and 50 μM concentrations (FIGS. 9-15).

[6] = tested on: PC12 cells; test: Membrane potential (CytoLite luminescence) in Aβ-treated PC12 cells; format: cell-based, rat; settings: 10 μM Aβ
Description: as §1
Cells viability was also assessed using the luminescence-based kit CytoLite™ (Packard BioScience Co.) according to the recommendations of the manufacturer. Briefly, cells were cultured and treated in 96-well plates and after 72-hours incubation time, 25 μl of Activator solution was added to the cells followed by 150 μl of Amplifier solution. Luminescence was measured on a TopCount NXT™ counter (Packard BioSciences Co.) following a 5 minute precount delay.

[7] = tested on: PC12 cells; test: Cellular ATP levels (ATPLite-M) in Aβ-treated PC12 cells; format: cell-based, rat; settings: 0.1 and 1.0 μM Aβ
Description: as §1
Cellular ATP concentrations were measured using the ATPLite-M™ luminescence assay (Packard BioSciences Co.). For this assay, cells were cultured on black 96-well ViewPlate™ and the ATP concentrations were measured on a TopCount NXT™ counter (Packard BioSciences Co.) following the recommendations of the manufacturer.

[8] = tested on: PC12 cells; test: Trypan blue uptake, Aβ-treated PC12 cells (Example II); format: cell-based, rat
Description: as §1, with “The cells were stimulated with the indicated concentrations of the various SP compounds in 0.2 ml/well serum-free medium for 2 hours. The culture medium was collected and tested for progesterone production by radioimmunoassay.” left out
Cell viability was measured using the trypan blue exclusion method as we previously described. […] After washing three times with PBS, 0.1 N NaOH was added to the cells and trypan blue was quantified using the Victor quantitative detection spectrophotometer at 450 nm.

[9] = tested on: MA-10 mouse tumor Leydig cells; test: Steroid (progesterone) formation in MA-10 Leydig cells; format: in vitro ADME; settings: MA-10 cells, 2 hours
Description: as §1, with “The cells were stimulated with the indicated concentrations of the various SP compounds in 0.2 ml/well serum-free medium for 2 hours. The culture medium was collected and tested for progesterone production by radioimmunoassay.” left out
Progesterone production by MA-10 cells was measured by radioimmunoassay using anti-progesterone antisera (ICN, Costa Mesa, Calif.), following the conditions recommended by the manufacturer. […] Radioimmunoassay data was analyzed using the MultiCalc software (EG&G Wallac, Gaithersburg, Md.). […]

[10] = biological target: T1, Aβ (Homo sapiens, UniProt P05067); test: CPBBA displacement of radiolabeled 22R-hydroxycholesterol from Aβ (Example II); format: binding; settings: 100 μM unlabeled compound; 50 μM Aβ
T1 construct: Aβ1-42 peptide was purchased from American Peptide Co; purchased American Peptide Co. (Sunnyvale, Calif.)
Description: At the end of the incubation time, samples were separated by 1.5% agarose (Type I-B) gel electrophoresis under native conditions and transferred to nitrocellulose membrane (Schleicher&Schuell, Keene, N.H.) in 10×SSC buffer. The membrane was exposed to tritium-sensitive screen and analyzed by phosphoimaging using the Cyclone Storage phosphor system (Packard BioScience). Image-densitometric analysis was performed using the OptiQuant software (Packard BioScience). […] Low molecular weight unincorporated 22R-hydroxycholesterol and derivatives are separated and eliminated during electrophoresis.

[11] = biological target: T1, Aβ; test: Immunoblot analysis of Aβ polymerization and ADDL formation; format: biochemical; settings: SP233 1, 10, 100 μM
Description: Increasing concentration of Aβ (0.1, 1 and 10 μM) were incubated in PC12 culture medium for 24 hours and 72 hours at 37° C. under 5% CO2 with or without increasing concentrations of SP233 (1, 10 and 100 μM). At the end of the incubation time, samples were separated by 4-20% Tris-Glycine gel electrophoresis (Invitrogen) under native conditions at 125V for 2 hours and transferred to nitrocellulose membrane (Hybond™ ECL™, Amersham Pharmacia Biotech) at […] for 30 minutes. Non-specific adsorption of the antibodies was blocked by incubating the nitrocellulose in 5% milk. The blots were treated for immunodetection of Aβ species using a polyclonal antibody to Aβ that recognizes a 30 amino acid peptide of the Aβ protein (Zymed Laboratories, San Francisco, Calif.). Membranes were incubated in primary antibody for 1 hour at room temperature at a dilution of 1:2,000. Then, membranes were incubated in the secondary antibody at a dilution of 1:1,000 for 1.5 hours at room temperature. The blots were visualized using the ECL™ Western Blotting Analysis System (Amersham Biosciences). Image-densitometric analysis was performed using the OptiQuant software (Packard BioScience). This method allows for the separation, visualization and identification of Aβ complexes, polymers and ADDLs.

[12] = MTT, compounds at 30 and 50 μM, 72 hours

T1 sequence (P05067 672-713): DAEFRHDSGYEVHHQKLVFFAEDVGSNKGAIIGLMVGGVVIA

CC(C)CC[C@H](O)[C@@H](C)[C@H]1CC[C@H]2[C@@H]3CC=C4C[C@@H](O)CC[C@]4(C)[C@H]3CC[C@]12C [22S-hydroxycholesterol, 5-cholesten-3β, 22S-diol]
effect on NT2 cell morphology (differentiation) [1]: could not be replicated
NT2 cell proliferation at 25 μM ([2]; 25 μM): significantly inhibited
NT2 cell proliferation at 50 μM [2]: significantly inhibited
cytotoxicity at high concentrations [3]: cytotoxic
PC12 cell viability, steroid alone at 100 μM ([4]; 100 μM steroid): neurotoxic
neuroprotective effect against Aβ-induced neurotoxicity [4]: failed to protect; also recorded: inactive

CCCCCC(=O)O[C@H]1CC[C@@]2(C)C(=CC[C@H]3[C@@H]4C[C@@H]5O[C@@]6(CC[C@H](C)CO6)[C@@H](C)[C@@H]5[C@@]4(C)CC[C@@H]32)C1 [SP233, (22S,25S)-(20S)-spirost-5-en-3β-yl hexanoate]
protection against 0.1 μM Aβ ([5]; 0.1 μM Aβ): 75%
neuroprotective effect compared with SP222 ([5]; MTT, 0.1 μM Aβ): significantly more robust effect than SP222
neuroprotection against 0.1 μM Aβ-induced neurotoxicity [5, 12]: displayed neuroprotective activity
neuroprotection against 1 μM Aβ-induced neurotoxicity [5, 12]: maintained their neuroprotective properties
neuroprotection against 10 μM Aβ-induced neurotoxicity [5, 12]: kept this property; also recorded: exhibited neuroprotective activity
neuroprotection against Aβ-induced neurotoxicity (structure/activity discussion) ([5]; PC12 cells): the most potent compound
neuroprotection in vitro against Aβ at concentrations as low as ([5]; all assays used): 10 µM
neuroprotective effect against 10 μM Aβ, membrane potential luminescence [6]: replicated by the raise of the signal
reversal of Aβ-induced decrease in ATP levels [7]: able to reverse; also recorded: blocked, although in part
dose-dependence of the neuroprotective effect ([8]; FIG. 15, 0.1, 1.0 and 10.0 μM Aβ): dose-dependent
effect on Aβ-induced cell death (trypan blue uptake) ([8]; SP233 at 30 and 50 μM, 0.1, 1 and 10 μM Aβ): inhibited the Aβ-induced cell death
metabolism to final steroid products / steroid formation [9]: could not be metabolized to final steroid products; also recorded: unable to induce steroid formation
displacement of radiolabeled 22R-hydroxycholesterol binding to Aβ [10]: 35%
amount of Aβ polymeric species [11]: small dose-dependent increase
trimeric and tetrameric ADDLs ([11]; 10 μM Aβ, 24 and 72 hours): dose-effect relationship is also observed; also recorded: decreased in a dose-dependent manner
amount of Aβ monomeric species ([11]; 1 and 10 μM Aβ, 24 and 72 hours): decreases in a dose-dependent manner

CC(=O)[C@H]1CC[C@H]2[C@@H]3CC=C4C[C@@H](O)CC[C@]4(C)[C@H]3CC[C@]12C [pregnenolone, 5-pregnen-3β-ol-20-one]
NT2 cell proliferation at 50 μM [2]: significantly inhibited
cytotoxicity at high concentrations [3]: cytotoxic
neuroprotective effect against Aβ-induced neurotoxicity [4]: could not be replicated
PC12 cell viability, steroid alone ([4]; absence of Aβ): toxic to the cells
